Columns and labels:
[1] = In vitro glucuronidation assay with pooled human liver microsomes; type: in vitro ADME; settings: 100 μg pooled human liver microsomes (n=20), 500 μM compound, HPLC 308 nm
skin of SKH-1 mice [2] = test: UV-B induced visual skin damage (redness) in SKH-1 mice, topical treatment; type: in vivo; settings: topical 10 μmol/0.2 ml acetone/mouse 30 min before 180 mJ/cm^2 UV-B, every 2 days, 7 treatments, 5 mice per group
Experimental: FIG. 2 depicts the manner in which pterostilbene prevents UV-B induced damage in the skin of SKH-1 mice. […] Photographs show representative mice after 4th treatment.
(§1) UV-B exposure. Mice were exposed to a single dose of 180 mJ/cm^2 UVB radiation delivered via broadband UVB lamps (TL 40 W/12 RS; Philips) emitting 290-350 nm light with a peak emission at 312 nm. The irradiance was measured using a thermopile sensor (818P-001-12; Newport Inc., Irvine, Calif.) and power meter (842-PE; Newport Inc.).
Hairless SKH-1 mice were used to evaluate the effectiveness of pterostilbene at preventing UV-mediated damage in skin. The SKH-1 model is ideally suited for this purpose and is commonly used in preclinical studies and yielded valuable results. […] To ascertain if pterostilbene could also prevent those molecular alterations, we replicated these experiments. […] For all topical treatments 200 μl total volume was applied to the back skin of the mouse. For acetone group, 200 μl of acetone was applied. […] These mice were treated every 2 days for 7 total treatments. […] 24 hrs after last treatment, mice were euthanized, skin bi-fold measurements taken and back skins collected. As shown in FIGS. 2 and 3A-B, pterostilbene prevented UV-B-induced damage in mouse skin. […] This prevention of visual skin damage by pterostilbene correlated nicely with the prevention of DNA damage. […]

skin of SKH-1 mice [3] = test: ELISA of UV-B induced DNA damage (CPD, 64 pp) in back skin DNA of SKH-1 mice; type: in vivo; settings: topical 10 μmol/mouse before 180 mJ/cm^2 UV-B, 14-day experiment
Description: FIGS. 3A and 3B depict the manner in which pterostilbene prevents UV-B induced DNA damage in the skin of SKH-1 mice, namely (A) CPD or (B) 64 pp DNA damage. ELISAs are shown for different arms of mouse study (Abs. 492 nm). * indicates p<0.01 as compared with vehicle (VEH). (RES) is resveratrol and (PTERO) is pterostilbene. NS is not significant.
as §1
ELISAS. DNA was isolated from snap frozen whole back skin using Qiagen QIAamp Blood mini kit (cat #51104) per manufacturer's instructions. ELISAs were performed on purified DNA with anti-CPD (clone TDM2) and anti-64 PP (clone 64M-2) antibodies using manufacturer's protocol and read using a DTX 800 Multimode Detector plate reader (Beckman Coulter) using standard settings from colorimetric detection. Four technical replicates were used and DNA-free wells were used as negative control.
Hairless SKH-1 mice were used to evaluate the effectiveness of pterostilbene at preventing UV-mediated damage in skin. The SKH-1 model is ideally suited for this purpose and is commonly used in preclinical studies and yielded valuable results. […] To ascertain if pterostilbene could also prevent those molecular alterations, we replicated these experiments. […] For all topical treatments 200 μl total volume was applied to the back skin of the mouse. For acetone group, 200 μl of acetone was applied. […] These mice were treated every 2 days for 7 total treatments. […] 24 hrs after last treatment, mice were euthanized, skin bi-fold measurements taken and back skins collected. As shown in FIGS. 2 and 3A-B, pterostilbene prevented UV-B-induced damage in mouse skin. […] This prevention of visual skin damage by pterostilbene correlated nicely with the prevention of DNA damage. […] Therefore pterostilbene prevented the 2 major types of UV-induced DNA damage (CPD and 64 pp) in the skin of SKH-1 mice.
DNA was obtained from the back skin of the SKH-1 mice from the experiment above after completion of the 14-day experiment. This DNA was then examined for DNA damage (both CPD and 64 pp) quantitatively using ELISA as previously described (Nishiwaki, Y., et al., “Trichothiodystrophy fibroblasts are deficient in the repair of ultraviolet-induced cyclobutane pyrimidine dimers and (6-4) photoproducts,” J. Invest. Dermatol. (2004) 122: 526-32). […] Quantification of DNA damage was measured at 492 nm by a spectrophotometer.

skin of SKH-1 mice [4] = test: UV-B mediated bi-fold skin thickening and hyperplasia (H&E) in SKH-1 mice; type: in vivo; settings: topical 10 μmol/mouse before 180 mJ/cm^2 UV-B
Experimental: FIG. 3C depicts the manner in which pterostilbene prevents UV-mediated bi-fold skin thickening. Bi-fold skin measurements (mm) were made using a digital caliper. At least three measurements for each mouse were taken along the back.
FIG. 4 depicts the manner in which pterostilbene prevents UV-mediated hyperplasia. H&E stains of back skins from mice in the indicated treatment arms (i.e., UV-B treated and control) were performed.
as §1
Hairless SKH-1 mice were used to evaluate the effectiveness of pterostilbene at preventing UV-mediated damage in skin. The SKH-1 model is ideally suited for this purpose and is commonly used in preclinical studies and yielded valuable results. […] To ascertain if pterostilbene could also prevent those molecular alterations, we replicated these experiments. […] For all topical treatments 200 μl total volume was applied to the back skin of the mouse. For acetone group, 200 μl of acetone was applied. […] These mice were treated every 2 days for 7 total treatments. […]

[5] = cited from earlier work; for bioavailability: in vivo
[6] = rats, relative to resveratrol; cited from earlier work
[7] = 125 mg orally twice a day, human; cited from earlier work
mouse epidermis = settings: cited from earlier work

COc1cc(/C=C/c2ccc(O)cc2)cc(OC)c1 [pterostilbene, 3,5-dimethoxy-4′-hydroxy-trans-stilbene]
extent of metabolism (glucuronidation) after 2 hours [1]: 20% | redness (sunburn) on back skin (skin of SKH-1 mice [2]): no redness was observed on any of the 5 mice | 64 pp DNA damage by ELISA (Abs. 492 nm) (skin of SKH-1 mice [3]): no 64 pps are observed | CPD DNA damage by ELISA (Abs. 492 nm) (skin of SKH-1 mice [3]): no CPDs were detected | UV-mediated bi-fold skin thickening (skin of SKH-1 mice [4]; digital caliper on dorsal skin, versus vehicle+UV-B): prevented UV-mediated bi-fold skin thickening | UV-mediated hyperplasia (H&E stain of back tissue) (skin of SKH-1 mice [4]; formalin fixed paraffin embedded back tissue): prevented UV-mediated hyperplasia at the cellular level | half life t1/2 in blood [5]: about 105 minutes | bioavailability [5]: orally bioavailable | increased bioavailability versus resveratrol [6]: 5 fold | overall blood pressure [7]: reduction in overall blood pressure was observed | toxicity in patients [7]: no toxicity reported | COX-2 activation and TPA-induced tumor formation in mouse epidermis in vivo (mouse epidermis; 12-O-tetradecanoylphorbol-13-acetate (TPA), mouse epidermis in vivo): prevent COX-2 activation and 12-O-tetradecanoylphorbol-13-acetate (TPA)-induced tumor formation | potency versus resveratrol in inhibition of NF-KB, AP-1 and iNOS activation in mouse skin (mouse epidermis; mouse skin): equally or significantly more potent than resveratrol

Oc1ccc(C=Cc2cc(O)cc(O)c2)cc1 [resveratrol, reference compound]
redness (sunburn) on back skin (skin of SKH-1 mice [2]): able to limit the amount of redness observed on the back, it did not prevent it | 64 pp DNA damage by ELISA (Abs. 492 nm) (skin of SKH-1 mice [3]): no 64 pps are observed | CPD DNA damage by ELISA (Abs. 492 nm) (skin of SKH-1 mice [3]): quantitatively detected above background | half life t1/2 in blood [5]: about 14 minutes | bioavailability [5]: poor bioavailability
